From patent US7981903B2, “2-[2-{phenylamino}-1H-pyrrolo[2,3-D]pyrimidin-4-yl)amino] benzamide derivatives as IGF-1R inhibitors for the treatment of cancer” (GlaxoSmithKline LLC, priority 2007, dated 2011)

Columns and labels:
ALK = ALK (Homo sapiens, UniProt Q9UM73); assay: ALK enzyme assay (HTRF); format: biochemical; conditions: 0.25 nM ALK, 15.0 μM ATP, values given as pIC50 category
How it was run: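 Final compound range 0.00017 to 10 μM (twelve 1:3 dilutions). Kinase reaction with ATP and biotinylated synthetic peptide runs 120 min at 20° C, stopped with EDTA; phosphotyrosine detected by HTRF after 60 min. Inhibition referenced to DMSO (1%) and EDTA (0.1 M) controls, curve-fitted.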

NCI-H929 = assay: Inhibition of cell proliferation (CellTiter-Glo or InCell analyzer), NCI-H929; format: cell-based; conditions: Homo sapiens, 72 h / 3 days, values given as IC50 category
How it was run: In one

[1] = target: T1, NIH-3T3 cells overexpressing human IGF-1R (Homo sapiens, UniProt P08069); assay: IGF-1R cellular autophosphorylation (DELFIA); format: cell-based
T1 construct: expressed in transfected cells; host or cells: NIH-3T3 (mouse fibroblasts)
T1 sequence (P08069 31-1367): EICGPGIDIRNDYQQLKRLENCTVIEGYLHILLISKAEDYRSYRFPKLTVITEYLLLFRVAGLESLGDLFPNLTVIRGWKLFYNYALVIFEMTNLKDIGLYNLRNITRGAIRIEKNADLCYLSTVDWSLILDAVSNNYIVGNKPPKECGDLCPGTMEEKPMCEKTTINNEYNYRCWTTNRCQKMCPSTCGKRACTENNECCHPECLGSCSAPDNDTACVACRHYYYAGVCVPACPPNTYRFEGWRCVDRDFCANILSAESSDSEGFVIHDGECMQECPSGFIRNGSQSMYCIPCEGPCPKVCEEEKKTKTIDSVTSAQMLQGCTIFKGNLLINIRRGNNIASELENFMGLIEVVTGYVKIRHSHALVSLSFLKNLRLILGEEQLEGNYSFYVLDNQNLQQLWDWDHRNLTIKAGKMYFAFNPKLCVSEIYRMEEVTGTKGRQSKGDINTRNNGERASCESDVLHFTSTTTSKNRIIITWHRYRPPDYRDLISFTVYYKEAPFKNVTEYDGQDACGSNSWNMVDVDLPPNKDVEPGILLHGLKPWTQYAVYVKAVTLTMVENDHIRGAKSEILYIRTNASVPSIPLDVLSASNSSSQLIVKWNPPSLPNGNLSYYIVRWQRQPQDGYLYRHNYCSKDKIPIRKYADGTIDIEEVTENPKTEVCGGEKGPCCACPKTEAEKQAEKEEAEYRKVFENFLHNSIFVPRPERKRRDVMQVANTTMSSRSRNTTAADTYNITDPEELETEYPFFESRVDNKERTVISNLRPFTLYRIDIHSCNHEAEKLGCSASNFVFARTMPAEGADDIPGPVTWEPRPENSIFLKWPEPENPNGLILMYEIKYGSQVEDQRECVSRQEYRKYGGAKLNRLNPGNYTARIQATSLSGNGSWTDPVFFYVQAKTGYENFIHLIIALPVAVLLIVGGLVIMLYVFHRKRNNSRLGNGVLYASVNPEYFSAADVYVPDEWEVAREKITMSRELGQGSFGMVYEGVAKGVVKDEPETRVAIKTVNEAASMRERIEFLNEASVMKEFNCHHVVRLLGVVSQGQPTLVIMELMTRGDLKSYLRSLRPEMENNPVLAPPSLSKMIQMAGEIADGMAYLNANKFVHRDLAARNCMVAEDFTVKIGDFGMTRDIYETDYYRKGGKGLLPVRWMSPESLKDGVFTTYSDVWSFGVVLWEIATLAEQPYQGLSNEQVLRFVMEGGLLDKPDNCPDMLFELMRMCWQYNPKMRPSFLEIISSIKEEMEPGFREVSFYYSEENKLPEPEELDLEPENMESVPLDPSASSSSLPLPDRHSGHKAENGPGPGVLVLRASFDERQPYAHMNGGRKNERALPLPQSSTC
How it was run: (§1)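 Receptor autophosphorylation measured by DELFIA, capturing IGF-1R or IRβ and detecting with europium anti-pTyr, reported as percent of IGF-1- or insulin-stimulated signal. Compounds (30 uM to 1.5 nM) added 2 h before ligand, then 15 min stimulation (IGF-1 30 ng/ml or insulin 3 ug/ml).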

[2] = target: T2, NIH-3T3 cells overexpressing human IR (Homo sapiens, UniProt P06213); assay: IR cellular autophosphorylation (DELFIA); format: cell-based; conditions: 2 h compound, insulin 3 ug/ml for 15 minutes, IC50 category
T2 construct: expressed in transfected cells; host or cells: NIH-3T3 (mouse fibroblasts)
T2 sequence (P06213 28-1382): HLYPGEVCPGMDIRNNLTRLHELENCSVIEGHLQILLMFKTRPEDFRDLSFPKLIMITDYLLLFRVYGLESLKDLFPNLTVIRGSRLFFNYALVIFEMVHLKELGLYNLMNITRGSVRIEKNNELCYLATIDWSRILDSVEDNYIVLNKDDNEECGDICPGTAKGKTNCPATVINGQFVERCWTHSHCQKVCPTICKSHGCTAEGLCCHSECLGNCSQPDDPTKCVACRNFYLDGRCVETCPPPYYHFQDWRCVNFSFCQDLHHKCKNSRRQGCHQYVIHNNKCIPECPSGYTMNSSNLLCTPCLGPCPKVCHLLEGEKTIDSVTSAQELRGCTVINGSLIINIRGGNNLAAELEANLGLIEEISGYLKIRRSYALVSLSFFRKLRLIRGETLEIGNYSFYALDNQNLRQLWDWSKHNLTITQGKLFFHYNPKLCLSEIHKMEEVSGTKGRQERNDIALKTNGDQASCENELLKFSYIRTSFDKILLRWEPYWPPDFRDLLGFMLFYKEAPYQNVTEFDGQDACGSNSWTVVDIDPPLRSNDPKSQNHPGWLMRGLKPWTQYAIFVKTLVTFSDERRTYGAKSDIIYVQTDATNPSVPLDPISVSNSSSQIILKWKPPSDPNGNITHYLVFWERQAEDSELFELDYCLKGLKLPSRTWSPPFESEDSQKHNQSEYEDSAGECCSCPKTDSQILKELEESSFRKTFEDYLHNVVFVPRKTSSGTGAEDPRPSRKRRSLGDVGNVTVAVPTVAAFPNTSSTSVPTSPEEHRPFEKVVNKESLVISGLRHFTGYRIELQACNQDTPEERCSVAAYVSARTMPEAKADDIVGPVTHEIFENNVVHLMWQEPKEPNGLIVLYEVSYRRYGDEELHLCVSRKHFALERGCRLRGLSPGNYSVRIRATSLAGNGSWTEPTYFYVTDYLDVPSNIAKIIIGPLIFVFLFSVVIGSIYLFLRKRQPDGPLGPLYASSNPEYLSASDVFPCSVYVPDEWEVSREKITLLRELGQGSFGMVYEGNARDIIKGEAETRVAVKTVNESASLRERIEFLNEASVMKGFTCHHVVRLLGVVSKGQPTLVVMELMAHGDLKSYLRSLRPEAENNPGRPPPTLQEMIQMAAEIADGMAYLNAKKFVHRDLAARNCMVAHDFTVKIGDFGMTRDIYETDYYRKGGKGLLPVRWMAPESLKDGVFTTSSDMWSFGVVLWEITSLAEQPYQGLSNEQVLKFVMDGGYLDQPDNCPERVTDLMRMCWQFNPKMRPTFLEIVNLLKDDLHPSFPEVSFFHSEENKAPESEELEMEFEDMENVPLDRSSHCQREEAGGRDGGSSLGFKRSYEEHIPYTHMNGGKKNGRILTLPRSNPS
How it was run: as §1

Sequence of ALK (Q9UM73 19-1620): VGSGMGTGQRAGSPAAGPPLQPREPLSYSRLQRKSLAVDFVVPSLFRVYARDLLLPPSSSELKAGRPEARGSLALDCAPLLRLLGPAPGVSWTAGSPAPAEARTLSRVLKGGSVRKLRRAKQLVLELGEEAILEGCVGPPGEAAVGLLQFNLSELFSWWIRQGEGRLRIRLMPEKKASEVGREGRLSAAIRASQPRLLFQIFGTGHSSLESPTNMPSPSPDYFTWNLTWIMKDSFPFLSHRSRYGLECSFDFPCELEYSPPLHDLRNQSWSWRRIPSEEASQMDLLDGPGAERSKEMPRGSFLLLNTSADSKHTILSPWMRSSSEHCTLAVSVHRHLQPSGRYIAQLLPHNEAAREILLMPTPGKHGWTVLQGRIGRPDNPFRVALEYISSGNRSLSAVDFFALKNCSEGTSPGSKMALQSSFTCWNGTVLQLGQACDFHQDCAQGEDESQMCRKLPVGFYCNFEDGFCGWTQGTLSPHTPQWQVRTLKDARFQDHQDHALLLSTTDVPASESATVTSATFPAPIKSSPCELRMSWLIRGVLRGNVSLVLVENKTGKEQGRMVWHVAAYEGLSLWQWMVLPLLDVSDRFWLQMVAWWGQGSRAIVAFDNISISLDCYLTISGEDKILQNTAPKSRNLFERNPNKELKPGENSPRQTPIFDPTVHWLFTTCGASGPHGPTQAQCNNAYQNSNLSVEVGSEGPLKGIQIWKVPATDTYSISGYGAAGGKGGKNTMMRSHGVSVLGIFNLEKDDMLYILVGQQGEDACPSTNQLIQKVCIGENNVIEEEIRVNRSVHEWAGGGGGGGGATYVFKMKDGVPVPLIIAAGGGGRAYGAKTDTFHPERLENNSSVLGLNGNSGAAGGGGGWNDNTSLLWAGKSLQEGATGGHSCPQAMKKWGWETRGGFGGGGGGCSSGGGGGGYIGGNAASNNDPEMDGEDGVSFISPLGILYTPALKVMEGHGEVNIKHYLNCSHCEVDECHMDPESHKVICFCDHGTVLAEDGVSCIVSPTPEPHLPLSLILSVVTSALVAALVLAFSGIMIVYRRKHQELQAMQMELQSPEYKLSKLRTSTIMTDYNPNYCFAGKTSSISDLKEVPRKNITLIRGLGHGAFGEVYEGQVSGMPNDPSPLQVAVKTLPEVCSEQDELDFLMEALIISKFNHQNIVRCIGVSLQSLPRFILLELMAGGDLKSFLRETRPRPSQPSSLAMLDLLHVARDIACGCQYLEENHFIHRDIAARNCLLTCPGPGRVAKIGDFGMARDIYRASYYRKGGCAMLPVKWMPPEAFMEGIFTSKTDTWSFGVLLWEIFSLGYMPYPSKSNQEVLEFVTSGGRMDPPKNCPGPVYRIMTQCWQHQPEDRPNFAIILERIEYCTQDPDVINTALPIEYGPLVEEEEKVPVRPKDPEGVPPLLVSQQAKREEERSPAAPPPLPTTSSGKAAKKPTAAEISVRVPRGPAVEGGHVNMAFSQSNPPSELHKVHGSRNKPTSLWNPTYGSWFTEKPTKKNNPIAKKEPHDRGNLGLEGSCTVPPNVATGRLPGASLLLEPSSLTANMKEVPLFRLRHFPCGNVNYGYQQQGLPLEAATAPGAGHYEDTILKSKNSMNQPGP

| Compound | IC50 (ALK) | IC50 (NCI-H929) | IC50 [1] | IC50 [2] |
| --- | --- | --- | --- | --- |
| Cc1cc2c(cc1Nc1nc(Nc3cccc(F)c3C(N)=O)c3cc[nH]c3n1)N(C(=O)CN(C)C)CCC2 [Example 246, 2-[(2-{[1-(N,N-dimethylglycyl)-6-methyl-1,2,3,4-tetrahydro-7-quinolinyl]amino}-1H-pyrrolo[2,3-d]pyrimidin-4-yl)amino]-6-fluorobenzamide] | 5.01 to 200 nM | < 250 nM | 100 to 500 nM | 100 to 500 nM |
| CCCN1CCC(c2ccc(Nc3nc(Nc4cc(F)c(F)cc4C(N)=O)c4cc[nH]c4n3)c(OC)c2)CC1 [Example 98, 4,5-difluoro-2-[(2-{[2-(methyloxy)-4-(1-propyl-4-piperidinyl)phenyl]amino}-1H-pyrrolo[2,3-d]pyrimidin-4-yl)amino]benzamide] | 0.251 to 1 nM | < 250 nM | < 100 nM | < 100 nM |
| COc1cc2c(cc1Nc1nc(Nc3cc(F)cc(F)c3C(=O)NCc3ccc(F)cc3)c3cc[nH]c3n1)N(C(=O)CN(C)C)CC2 [Example 155, 2-[(2-{[1-(N,N-dimethylglycyl)-5-(methyloxy)-2,3-dihydro-1H-indol-6-yl]amino}-1H-pyrrolo[2,3-d]pyrimidin-4-yl)amino]-4,6-difluoro-N-[(4-fluorophenyl)methyl]benzamide] | 5.01 to 200 nM | > 1000 nM | 100 to 500 nM | 100 to 500 nM |
| COc1cc(N2CCN(C(C)C)CC2)ccc1Nc1nc(Nc2cccc3c2C(=O)NC3)c2cc[nH]c2n1 [Example 199, 7-[(2-{[4-[4-(1-methylethyl)-1-piperazinyl]-2-(methyloxy)phenyl]amino}-1H-pyrrolo[2,3-d]pyrimidin-4-yl)amino]-2,3-dihydro-1H-isoindol-1-one] | 0.251 to 1 nM | < 250 nM | < 100 nM | < 100 nM |
| COc1cc2c(cc1Nc1nc(Nc3cccc(F)c3C(N)=O)c3cc[nH]c3n1)N(C(=O)CN1CCCC1)CC2 [Example 138, 2-fluoro-6-[(2-{[5-(methyloxy)-1-(1-pyrrolidinylacetyl)-2,3-dihydro-1H-indol-6-yl]amino}-1H-pyrrolo[2,3-d]pyrimidin-4-yl)amino]benzamide] | 1.26 to 3.98 nM | < 250 nM | < 100 nM | < 100 nM |
| CCC(C)N1CCc2cc(OC)c(Nc3nc(Nc4cccc(F)c4C(N)=O)c4cc[nH]c4n3)cc2C1 (stereo not drawn) [Example 237, 2-fluoro-6-[(2-{[6-(methyloxy)-2-(1-methylpropyl)-1,2,3,4-tetrahydro-7-isoquinolinyl]amino}-1H-pyrrolo[2,3-d]pyrimidin-4-yl)amino]benzamide] | 1.26 to 3.98 nM | < 250 nM | 100 to 500 nM | < 100 nM |
| COc1cc(N2CCC(N3CC[C@@H](F)C3)CC2)ccc1Nc1nc(Nc2cccc(F)c2C(N)=O)c2cc[nH]c2n1 [Example 44, 2-fluoro-6-[(2-{[4-{4-[(3R)-3-fluoro-1-pyrrolidinyl]-1-piperidinyl}-2-(methyloxy)phenyl]amino}-1H-pyrrolo[2,3-d]pyrimidin-4-yl)amino]benzamide] | 1.26 to 3.98 nM | < 250 nM | > 500 nM | > 500 nM |
| COc1cc2c(cc1Nc1nc(Nc3cc(F)cc(F)c3C(=O)NCC(C)C)c3cc[nH]c3n1)N(C(=O)CN(C)C)CC2 [Example 154, 2-[(2-{[1-(N,N-dimethylglycyl)-5-(methyloxy)-2,3-dihydro-1H-indol-6-yl]amino}-1H-pyrrolo[2,3-d]pyrimidin-4-yl)amino]-4,6-difluoro-N-(2-methylpropyl)benzamide] | 1.26 to 3.98 nM | 250 to 1000 nM | 100 to 500 nM | > 500 nM |
| COc1cc(N2CCN(C(C)C)CC2)ccc1Nc1nc(Nc2cccc(F)c2C(N)=O)c2cc[nH]c2n1 [Example 46, 2-fluoro-6-[(2-{[4-[4-(1-methylethyl)-1-piperazinyl]-2-(methyloxy)phenyl]amino}-1H-pyrrolo[2,3-d]pyrimidin-4-yl)amino]benzamide] | 0.251 to 1 nM | < 250 nM | 100 to 500 nM | 100 to 500 nM |
| COc1cc2c(cc1Nc1nc(Nc3cccc(F)c3C(=O)NC(C)C)c3cc[nH]c3n1)N(C(=O)CN(C)C)CC2 [Example 158, 2-[(2-{[1-(N,N-dimethylglycyl)-5-(methyloxy)-2,3-dihydro-1H-indol-6-yl]amino}-1H-pyrrolo[2,3-d]pyrimidin-4-yl)amino]-6-fluoro-N-(1-methylethyl)benzamide] | 0.251 to 1 nM | 250 to 1000 nM | 100 to 500 nM | > 500 nM |
| CNC(=O)c1c(F)cccc1Nc1nc(Nc2cc(NC(=O)CN(C)C)ccc2OC)nc2[nH]ccc12 [Example 245, 2-[(2-{[5-[(N,N-dimethylglycyl)amino]-2-(methyloxy)phenyl]amino}-1H-pyrrolo[2,3-d]pyrimidin-4-yl)amino]-6-fluoro-N-methylbenzamide] | 0.251 to 1 nM | < 250 nM | > 500 nM | > 500 nM |
| CNC(=O)c1c(F)cccc1Nc1nc(Nc2cc3c(cc2OC)C(C)(C)CN3C(=O)CN(C)C)nc2[nH]ccc12 [Example 127, 2-[(2-{[1-(N,N-dimethylglycyl)-3,3-dimethyl-5-(methyloxy)-2,3-dihydro-1H-indol-6-yl]amino}-1H-pyrrolo[2,3-d]pyrimidin-4-yl)amino]-6-fluoro-N-methylbenzamide] | 0.251 to 1 nM | < 250 nM | < 100 nM | < 100 nM |
| COc1cc2c(cc1Nc1nc(Nc3cccc(F)c3C(N)=O)c3cc[nH]c3n1)CN(C(=O)CN(C)C)CC2 [Example 123, 2-[(2-{[2-(N,N-dimethylglycyl)-6-(methyloxy)-1,2,3,4-tetrahydro-7-isoquinolinyl]amino}-1H-pyrrolo[2,3-d]pyrimidin-4-yl)amino]-6-fluorobenzamide] | 1.26 to 3.98 nM | < 250 nM | 100 to 500 nM | 100 to 500 nM |
| CNC(=O)c1c(F)cccc1Nc1nc(Nc2cc3c(cc2OC)N(C(=O)CN(C)C)CC3)nc2[nH]ccc12 [Example 198, 2-[(2-{[1-(N,N-dimethylglycyl)-6-(methyloxy)-2,3-dihydro-1H-indol-5-yl]amino}-1H-pyrrolo[2,3-d]pyrimidin-4-yl)amino]-6-fluoro-N-methylbenzamide] | 1.26 to 3.98 nM | 250 to 1000 nM | > 500 nM | > 500 nM |
| CCN(C)CC(=O)N1CCc2cc(OC)c(Nc3nc(Nc4cccc(F)c4C(N)=O)c4cc[nH]c4n3)cc21 [Example 166, 2-[(2-{[1-(N-ethyl-N-methylglycyl)-5-(methyloxy)-2,3-dihydro-1H-indol-6-yl]amino}-1H-pyrrolo[2,3-d]pyrimidin-4-yl)amino]-6-fluorobenzamide] | 1.26 to 3.98 nM | < 250 nM | < 100 nM | < 100 nM |
| COc1cc(N2CCC(N3CCN(CCS(C)(=O)=O)CC3)CC2)ccc1Nc1nc(Nc2cccc(F)c2C(N)=O)c2cc[nH]c2n1 [Example 115, 2-fluoro-6-[(2-{[2-(methyloxy)-4-(4-{4-[2-(methylsulfonyl)ethyl]-1-piperazinyl}-1-piperidinyl)phenyl]amino}-1H-pyrrolo[2,3-d]pyrimidin-4-yl)amino]benzamide] | 0.251 to 1 nM | < 250 nM | 100 to 500 nM | 100 to 500 nM |
| COc1cc(N2CCN(C(C)C)CC2)ccc1Nc1nc(Nc2ccc(F)c(F)c2C(N)=O)c2cc[nH]c2n1 [Example 94, 2,3-difluoro-6-[(2-{[4-[4-(1-methylethyl)-1-piperazinyl]-2-(methyloxy)phenyl]amino}-1H-pyrrolo[2,3-d]pyrimidin-4-yl)amino]benzamide] | 0.251 to 1 nM | < 250 nM | 100 to 500 nM | 100 to 500 nM |
| COc1cc2c(cc1Nc1nc(Nc3cccc(F)c3C(N)=O)c3cc[nH]c3n1)N(C(=O)CN)CC2 [Example 141, 2-fluoro-6-[(2-{[1-glycyl-5-(methyloxy)-2,3-dihydro-1H-indol-6-yl]amino}-1H-pyrrolo[2,3-d]pyrimidin-4-yl)amino]benzamide] | 1.26 to 3.98 nM | 250 to 1000 nM | > 500 nM | > 500 nM |
| CCN(CC)CC(=O)N1CCc2cc(OC)c(Nc3nc(Nc4cccc(F)c4C(N)=O)c4cc[nH]c4n3)cc21 [Example 136, 2-[(2-{[1-(N,N-diethylglycyl)-5-(methyloxy)-2,3-dihydro-1H-indol-6-yl]amino}-1H-pyrrolo[2,3-d]pyrimidin-4-yl)amino]-6-fluorobenzamide] | 1.26 to 3.98 nM | < 250 nM | < 100 nM | < 100 nM |
| COc1cc2c(cc1Nc1nc(Nc3cccc(F)c3C(N)=O)c3cc[nH]c3n1)CN(CCF)CC2 [Example 233, 2-fluoro-6-[(2-{[2-(2-fluoroethyl)-6-(methyloxy)-1,2,3,4-tetrahydro-7-isoquinolinyl]amino}-1H-pyrrolo[2,3-d]pyrimidin-4-yl)amino]benzamide] | 1.26 to 3.98 nM | < 250 nM | 100 to 500 nM | < 100 nM |
| CNC(=O)c1c(F)cccc1Nc1nc(Nc2cc3c(cc2OC)CCN3C(=O)CN(C)C)nc2[nH]cc(F)c12 [Example 253, 2-[(2-{[1-(N,N-dimethylglycyl)-5-(methyloxy)-2,3-dihydro-1H-indol-6-yl]amino}-5-fluoro-1H-pyrrolo[2,3-d]pyrimidin-4-yl)amino]-6-fluoro-N-methylbenzamide] | 0.251 to 1 nM | 250 to 1000 nM | 100 to 500 nM | 100 to 500 nM |
